From patent US9950026B2, “Methods for reducing oxidative damage” (Cornell Research Foundation, Inc., priority 2004, dated 2018)
Where a SMILES comes first, the peptide text is derived from it. [ ]: non-standard residue; d: D form. Dmt = Cc1cc(O)cc(C)c1C[C@H](N)C(=O)O

Columns and labels:
mice treated with MPTP = assay: MPTP animal model of Parkinson's Disease; type: in vivo; conditions: MPTP 3 x 10 mg/kg, sacrificed one week later
Procedure: MPTP is a neurotoxin that selectively destroys striatal dopamine neurons and can be used as an animal model of Parkinson's Disease. MPP^+, a metabolite of MPTP, targets mitochondria, inhibits complex I of the electron transport chain and increases ROS production. MPP^+ is used in cell culture studied because cells are unable to metabolize MPTP to the active metabolite. MPTP is used for animal studies.
Three doses of MPTP (10 mg/kg) was given to mice (n=12) 2 h apart. SS-31 was administered 30 min before each MPTP injection, and at 1 h and 12 h after the last MPTP injection. Animals were sacrificed one week later and striatal brain regions were immunostained for tyrosine hydroxylase activity.
Three doses of MPTP (10 mg/kg) was given to mice (n=12) 2 h apart. SS-31 was administered 30 min before each MPTP injection, and at 1 h and 12 h after the last MPTP injection.
Animals were sacrificed one week later and dopamine, DOPAC and HVA levels were quantified by high pressure liquid chromatography.

[1] = test system: islet cells isolated from mouse pancreas; assay: Islet isolation with SS-31 in isolation buffers (TMRM; annexin V/PI flow cytometry); type: cell-based; conditions: SS-31 1 nM in all isolation buffers
Procedure: Pancreas was harvested from mice and islet cells were prepared according standard procedures. In some studies, SS-31 (1 nM) was added to all isolation buffers used throughout the isolation procedure. Mitochondrial potential was measured using TMRM (red) and visualized by confocal microscopy.
Pancreas was harvested from mice and islet cells were prepared according standard procedures. In some studies, SS-31 (1 nM) was added to all isolation buffers used throughout the isolation procedure. Apoptosis was ascertained by flow cytometry using annexin V and necrosis by propidium iodide.

N2A cells [2] = assay: Mitochondrial potential (TMRM) after tBHP; type: cell-based, murine; conditions: 0.1 mM t-BHP, 1 nM SS-31, 6 h
Procedure: N2A cells in glass bottom dish were treated with 0.1 mM t-BHP, alone or with 1 nM SS-31, for 6 h. Cells were then loaded with 10 μm of dichlorofluorescin (ex/em=485/530) for 30 min at 37° C., 5% CO2. Then cells were subjected 3 times wash with HBSS and stained with 20 nM of Mitotracker TMRM (ex/em=550/575 nm) for 15 min at 37° C. and examined by confocal laser scanning microscopy.

[3] = test system: isolated guinea pig hearts; assay: Isolated hearts, 18 h cold ischemia followed by warm reperfusion; conditions: 1 nM SS-31 in cardioplegic solution, 18 h at 4° C.
Procedure: Isolated guinea pig hearts were perfused in a retrograde manner in a Langendorff apparatus with a cardioplegic solution (St. Thomas solution) without or with SS-31 (1 nM) for 3 min. and then clamped and stored at 4° C. for 18 h. Subsequently, the hearts were remounted in the Langendorff apparatus and reperfused with Krebs-Henseleit solution at 34° C. for 90 min. Hearts were then rapidly fixed and paraffin-embedded.
(B) Immunohistochemical analysis of HNE-modified proteins in paraffin sections from guinea pig hearts stored without (a) or with (b) SS-31 (1 nM). (c) Background staining without primary antibody.
Apoptosis was assessed by the TUNEL stain (green) and nuclei are visualized by DAPI (blue).

G93A mice = assay: Lumbar spinal cord cell counts and immunostaining in ALS mice; type: in vivo
Text: FIG. 27. Attenuation of motor neuron loss by SS-31 in the ventral horn of the lumbar spinal cord of G93A mice. Photomicrographs show cresyl violet stained sections through the ventral horn of the lumbar spinal cord from non-transgenic control (A) and G93A mice treated with vehicle (PBS) (B) or SS-31 (C) at 110 days of age. […] Values are mean±standard error of means.
(§1) FIG. 28A-28C. 4-hydroxynonenol immunostaining. Photomicrographs of representative sections through the ventral horn of the lumbar spinal cord of wild-type control (A), and G93A mice treated with vehicle (B) or SS-31 (C) show generalized reduction of 4-hydroxynonenal staining in neurons and neurophils in drug-treated mice.
as §1, with “29A-29C. Nitrotyrosine” for “28A-28C. 4-hydroxynonenol”, “nitrotyrosine” for “4-hydroxynonenal”

N2A cells [4] = assay: Lipid peroxidation, HNE Michael adducts, after tBHP; type: cell-based, murine; conditions: t-BHP 1 mM, 3 h
Procedure: Lipid peroxidation was evaluated by measuring HNE Michael adducts. 4-HNE is one of the major aldehydic products of the peroxidation of membrane polyunsaturated fatty acids. N2A cells were seeded on glass bottom dish 1 day before t-BHP treatment (1 mM, 3 h, 37° C., 5% CO2) in the presence of absence of SS-31 (10^−8 to 10^−10 M). Cells were then washed twice with PBS and fixed 30 min with 4% paraformaldehyde in PBS at RT and then washed 3 times with PBS. Cells were then permeabilized, treated with rabbit-anti-HNE antibody followed by the secondary antibody (goat anti-rabbit IgG conjugated to biotin). Cells were mounted in Vectashield and imaged using a Zeiss fluorescence microscope using an excitation wavelength of 460±20 nm and a longpass filter of 505 nm for emission.

[5] = test system: C57BL/6 mice subjected to MCAO; assay: Infarct size, swelling and cerebral blood flow after MCAO; type: in vivo; conditions: for reduction in infarct volume: 2 mg/kg i.p., 3 days after ischemia
Procedure: FIG. 32A-32F. Effect of SS-31 peptide on ischemia-induced infarct size and swelling in C57BL/6 mice. Shown are representative serial sections (1.2 mm apart) stained with Cresyl Violet from mice subjected to 30 min (A) and 20 min (B) MCAO and treated with vehicle (Veh) or SS-31 (2 mg/kg body weight) immediately after reperfusion, 6 h, 24 h, and 48 h.
To address whether SS-31-induced attenuation in GSH depletion is associated with neuroprotection, mice were subjected to 30 or 20 min MCAO and then treated with vehicle or SS-31 (2 mg/kg, i.p.) upon reperfusion) and at 6 h, 24 h, 48 h after MCAO. Infarct volumes and hemispheric swelling were determined at 3 days after ischemia.

[6] = test system: G93A transgenic familial ALS mice; assay: Motor performance by rotarod in ALS mice; type: in vivo; conditions: between day 100 and 130
N2A cells [7] = assay: Phosphatidylserine translocation, Annexin V and propidium iodide staining after tBHP; type: cell-based, murine; conditions: 50 μM tBHP, 1 nM SS-31, 6 h
Procedure: FIG. 19A-19C. […] N2A cells were incubated with 50 μM tBHP for 6 h and stained with Annexin V and propidium iodide (PI). […] Combined staining with Annexin V and PI (red) indicate late apoptotic cells.
The translocation of phosphatidylserine from the inner leaflet of the plasma membrane to the outer leaflet is observed early in the initiation of apoptosis. This can be observed with Annexin V, a phospholipid binding protein with high affinity for phosphatidylserine.

Which results are given for `Cc1cc(O)cc(C)c1C[C@H](NC(=O)[C@H](N)CCCNC(=N)N)C(=O)N[C@@H](CCCCN)C(=O)N[C@@H](Cc1ccccc1)C(N)=O` [SS-31, D-Arg-2′6′-Dmt-Lys-Phe-NH2] (H-[dR][Dmt]KF-NH2; N-terminus assumed)?
loss of dopamine neurons (tyrosine hydroxylase immunostaining) (mice treated with MPTP): dose-dependently prevented loss; striatal DOPAC levels (mice treated with MPTP): dose-dependently increased; striatal HVA levels (mice treated with MPTP): dose-dependently increased; striatal dopamine levels (mice treated with MPTP): dose-dependently increased; apoptosis (annexin V) [1]: reduces apoptosis; mitochondrial potential (TMRM) [1]: improves mitochondrial potential; viability [1]: increases viability; mitochondrial depolarization (TMRM fluorescence) (N2A cells [2]): prevented mitochondrial depolarization; apoptosis in endothelial cells and myocytes (TUNEL) [3]: prevents apoptosis; coronary flow [3]: significantly improved; lipid peroxidation (HNE-modified proteins) [3]: Reduces Lipid Peroxidation; cell loss in the lumbar spinal cord (stereological cell counts) (G93A mice; mouse, in vivo): significantly ameliorated; 3-nitrotyrosine immunostaining (protein nitration) (G93A mice; spinal cord): markedly reduced; 4-hydroxynonenenal immunostaining (lipid peroxidation) (G93A mice; spinal cord): markedly reduced; lipid peroxidation (HNE adducts) (N2A cells [4]): inhibited lipid peroxidation; reduction in infarct volume ([5]; 20 min ischemia): 30%; reduction in infarct volume ([5]; 30 min ischemia): 24%; hemispheric swelling ([5]; both 30 and 20 min ischemic paradigms): significantly attenuated; motor performance (rotarod) [6]: significantly improved; Annexin V-positive cells (N2A cells [7]): reduction; propidium iodide staining (N2A cells [7]): no propidium iodide staining
